# Columns and labels:
# [1] = system: immortalized mouse C2C12 myoblasts; assay: Lipid species (ceramides) in C2C12 cells, LC-MS/MS; type: cell-based
# Method: (§1) (A) Schematic representation of the de novo sphingolipid synthesis pathway. (B) Chemical structures of myriocin (MYR) and ALT-007. (C) Heatmap analysis comparing the effects of treatments with the indicated concentrations of MYR and ALT-007 on lipid species in C2C12 cells. N = 3 per group. Data are shown as log2 fold change. (D) Body weight curves of mice treated with ALT-007 or vehicle (4 mg/kg/d for 10 days, in the food). (E) Mean food consumption measurement throughout the treatment. (F) Plasma levels of aspartate transaminase (AST), (G) alanine transaminase (ALT) and (H) creatine kinase (CK) after 10 days of treatment with ALT-007 at 4 mg/kg/day. (I) Ceramide levels measured in the gastrocnemius muscle after 10 days of treatment. N = 8 per group. Quantitative data are expressed as median with min to max values. *P < 0.05, **P < 0.01, ***P < 0.001. […]
# (§2) ESI source conditions were used as follows: dry gas temperature, 230 °C; nebulizer, 35 psi and flow rate of 14 L min^–1; sheath gas temperature, 400 °C and flow rate of 12 L min^–1; nozzle voltage, 500 V; and capillary voltage, 4000 V. Dynamic multiple reaction monitoring was used as the acquisition mode with a total cycle time of 500 ms. […] Raw LC–MS/MS data were processed applying Agilent Quantitative Analysis software (version B.07.00, MassHunter Agilent Technologies). […]
# [2] = system: ceramide levels in the gastrocnemius muscle; assay: Ceramide levels in gastrocnemius muscle after 10 days of treatment; type: in vivo, mice; conditions: 4 mg/kg/d in the food
# Method: as §1, §2
# [3] = system: Aged C57BL/6J mice; assay: VO2max test; type: in vivo, C57BL/6JRj mice; conditions: 1 mg/kg in the food, week 11
# Method: VO2max in mice was measured with a calorimetric treadmill (Columbus Instruments) with an incremental speed protocol as previously described.[33]
# [4] = system: Aged C57BL/6J mice; assay: Uphill running; type: in vivo, C57BL/6JRj mice; conditions: 1 mg/kg in the food, week 13, trend for improvement
# Method: Animals were placed on a treadmill at a speed of 15 cm/s in the beginning, then speed was increased by 3 cm/s every 12 min, with an incline of 5°. Mice were taken off the treadmill if they were considered exhausted (5 or more shocks (0.1 mA) per minute for two consecutive minutes) or if the maximum duration of the test was reached (3 h). The maximum running time before exhaustion was recorded and registered as maximum uphill running time.[34]
# [5] = system: GMC101 worms; assay: Paralysis scoring in amyloid beta expressing GMC101 worms; type: in vivo, Caenorhabditis elegans; conditions: GMC101, 1 μM, day 1 of adulthood
# Method: At least 100 worms per condition were manually scored for paralysis after poking. Results are representative of data obtained from at least two independent experiments. ALT-007 was administered at 1 μM and DMSO was used as a control. GMC101 animals were used and scoring was performed at day 1 of adulthood.
# [6] = system: C2C12 myoblasts carrying the APPswe mutation and human myoblasts from aged donors and patients with IBM; design: method as in PMID 37196064; conditions: cited from earlier work
smiles,measurement,setting,value
COc1cc(C(=O)N2CC[C@H](NC(=O)c3ccccc3OC(F)(F)F)c3c2cnn3C(C)C)cnc1OC [ALT-007],potency in lowering ceramide species,"[1]; C2C12 myoblasts, compared to Myriocin",superior potency compared to Myriocin
same,ceramide levels in C2C12 myoblasts,[1]; concentration of 10 nM,lower ceramide levels
same,ceramide levels in the gastrocnemius muscle,[2],effectively decreased ceramide levels with a stronger effect on very long-chain (VLC) species
same,VO2max,[3],significantly higher
same,ability to run uphill (maximum running time),[4],did not significantly improve
same,paralysis induced by amyloid beta aggregation,[5],reduce paralysis
same,protein aggregates,[6],potent effect in reducing protein aggregates
